The results in this text go back to article PMC2993181 (PLoS ONE, 2010).

A value given as a limit tells only on which side of the number the result lay.

This test concerns JEKO-1. The test can be described thus: cells. Set-up: species or system cell viability; MTT cell viability assay, absorbance 570/650 nm; IC50 by linear interpolation of concentration-response curve. As to conditions: Homo sapiens, JeKo-1, 48 h; read-out: IC 50 values. The protocol: Supplementary file pone.0015479.s006.doc: Table S2 A list of compounds tested in this study. JEKO-1 cells were treated with each of the listed compounds at concentrations ranging from 1.25 µM to […]. Cell viability was determined by the MTT assay and used to obtain concentration-response curve. IC50 was extracted by linear interpolation. Click here for additional data file. HeLa and 293T cells from ATCC were maintained according to the standard procedures. JEKO-1 cells were kept in RPMI, 10% FCS as previously described. NOXA and control stable knock-down JEKO-1 cells were described previously. PBMC from normal volunteers were obtained from the Department of Transfusion Medicine, NIH and PBMC from CLL patients were obtained under NIH protocol 97-C-0178 with informed consent. Transfection was done with lipofectamine 2000 (Invitrogen) for 293T accordingly to manufacture's instruction. Pulse chase and denaturing immunoprecipitation were carried out as described previously, [48]. Subcellular fractionation experiments were carried out as previously described. Briefly, HeLa cells were harvested and washed with phosphate-buffered saline. Cells were then treated on ice with the buffer PB (25 mM Hepes, pH 7.2, 115 mM potassium acetate, 5 mM sodium acetate, 2.5 mM magnesium acetate, 0.5 mM EGTA, and a protease inhibitor cocktail) that also contain 0.028% digitonin. Cells were centrifuged at 20,000×g for 10 min. The cytosolic supernatant fraction was removed and the nucleus and membrane pellet fraction was washed twice with the PB buffer. The pellet fraction was finally resuspended in the PB buffer. The fluorescence intensity in these fractions was measured by the Victor 3 plate reader using the Ex482 and Em523 filter set. […] After 4 h incubation, the sample absorbance at 570 nm and […] were measured using a Victor 3 plate reader (Perkin Elmer, Waltham, MA) and ratio of drug-treated samples vs. the untreated control was used to determine cell viability. […] Fluorescence labeled secondary antibodies (Invitrogen, Carlsbad, CA) were used for detection. […]

Take `O=C(CCCC[C@@H]1SC[C@@H]2NC(=O)N[C@@H]21)N/N=C/C=C/c1ccc([N+](=O)[O-])o1` [CBU-032]: the IC50 was determined as 25 µM.

As to `CN(C)c1ccc(/C=C/C=N/NC(=O)CN2C(=O)N(c3ccc(Cl)cc3)C(N(O)C(=O)Nc3ccc(Cl)cc3)C2(C)C)cc1` (stereo not drawn) [CBU-059], the IC50 is greater than 40 µM.

Regarding `CC1(C)C(N(O)C(=O)Nc2ccc(Cl)cc2)N(c2ccc(Cl)cc2)C(=O)N1CC(=O)N/N=C/C=C/c1ccc([N+](=O)[O-])o1` (stereo not drawn) [EerI, Eeyarestatin I], the IC50 came to 3.5 µM.
